ChEMBL document CHEMBL1649555, “Characterization of pABVA01, a plasmid encoding the OXA-24 carbapenemase from Italian isolates of Acinetobacter baumannii” (2009)
Values after ≈ are worked out from the molar mass of the structure shown.

Tests used:
Assay type in all cases: functional
[1] = test system: Acinetobacter baumannii; assay: Antibacterial activity against blaOXA-24-positive Acinetobacter baumannii isolate RUH134 by CLSI broth microdilution method
[2] = test system: Acinetobacter baumannii; assay: Antibacterial activity against blaOXA-24-positive Acinetobacter baumannii isolate N50 by CLSI broth microdilution method
[3] = test system: Acinetobacter baumannii; assay: Antibacterial activity against blaOXA-24-positive Acinetobacter baumannii isolate RUH134 harboring plasmid ABVA01 by CLSI broth microdilution method
[4] = test system: Acinetobacter baumannii; assay: Antibacterial activity against blaOXA-24-positive Acinetobacter baumannii isolate VA-566/00 by CLSI broth microdilution method
[5] = test system: Acinetobacter baumannii; assay: Antibacterial activity against blaOXA-24-positive Acinetobacter baumannii isolate VA-566/00 by CLSI broth microdilution method in presence of Sulbactam
[6] = test system: Acinetobacter baumannii; assay: Antibacterial activity against blaOXA-24-positive Acinetobacter baumannii isolate RUH134 harboring plasmid ABVA01 by CLSI broth microdilution method in presence of Sulbactam
[7] = test system: Acinetobacter baumannii; assay: Antibacterial activity against blaOXA-24-positive Acinetobacter baumannii isolate N50 by CLSI broth microdilution method in presence of Sulbactam
[8] = test system: Acinetobacter baumannii; assay: Antibacterial activity against blaOXA-24-positive Acinetobacter baumannii isolate RUH134 by CLSI broth microdilution method in presence of Sulbactam

Work on `C[C@@H](O)[C@H]1C(=O)N2C(C(=O)O)=C(SCCNC=N)C[C@H]12` [IMIPENEM ANHYDROUS] yielded an MIC [1] of 0.25 µg/mL (≈ 0.835 µM), an MIC [2] of 128 µg/mL (≈ 428 µM) and an MIC [3] of 64 µg/mL (≈ 214 µM). The MIC [4] was 256 µg/mL (≈ 855 µM).
Compound `C[C@@H](O)[C@H]1C(=O)N2C(C(=O)O)=C(S[C@@H]3CN[C@H](C(=O)N(C)C)C3)[C@H](C)[C@H]12` [MEROPENEM] has an MIC [1] of 1 µg/mL (≈ 2.61 µM), an MIC [2] of 128 µg/mL (≈ 334 µM) and an MIC [3] of 128 µg/mL (≈ 334 µM). For the same compound, the MIC [4] was 256 µg/mL (≈ 668 µM).
`CC(C)(O/N=C(\C(=O)N[C@@H]1C(=O)N2C(C(=O)[O-])=C(C[n+]3ccccc3)CS[C@H]12)c1csc(N)n1)C(=O)O` [CEFTAZIDIME] showed an MIC [1] of 16 µg/mL (≈ 29.3 µM), an MIC [2] greater than 256 µg/mL and an MIC [3] of 16 µg/mL (≈ 29.3 µM). For the same compound, the MIC [4] was greater than 256 µg/mL.
`CC1(C)S[C@@H]2[C@H](NC(=O)[C@H](N)c3ccccc3)C(=O)N2[C@H]1C(=O)O` [AMPICILLIN] was tested, and the MIC [5] was 64 µg/mL, the MIC [6] was 64 µg/mL and the MIC [7] was 32 µg/mL. It also gave an MIC [8] of 64 µg/mL.
Compound `NCC[C@H](O)C(=O)N[C@@H]1C[C@H](N)[C@@H](O[C@H]2O[C@H](CN)[C@@H](O)[C@H](O)[C@H]2O)[C@H](O)[C@H]1O[C@H]1O[C@H](CO)[C@@H](O)[C@H](N)[C@H]1O` [AMIKACIN] has an MIC [1] of 4 µg/mL (≈ 6.83 µM), an MIC [2] of 256 µg/mL (≈ 437 µM) and an MIC [3] of 4 µg/mL (≈ 6.83 µM). For the same compound, the MIC [4] was 64 µg/mL (≈ 109 µM).
`CN(C)c1cc(NC(=O)CNC(C)(C)C)c(O)c2c1C[C@H]1C[C@H]3[C@H](N(C)C)C(O)=C(C(N)=O)C(=O)[C@@]3(O)C(O)=C1C2=O` [TIGECYCLINE] gave an MIC [1] of 1 µg/mL (≈ 1.71 µM), an MIC [2] of 1 µg/mL (≈ 1.71 µM) and an MIC [3] of 1 µg/mL (≈ 1.71 µM). For the same compound, the MIC [4] was 4 µg/mL (≈ 6.83 µM).
Compound COLISTIN has an MIC [1] of 0.5 µg/mL, an MIC [2] greater than 8 µg/mL and an MIC [3] of 0.5 µg/mL. For the same compound, the MIC [4] was 0.5 µg/mL.
With GENTAMICIN the MIC [1] was greater than 256 µg/mL, the MIC [2] was greater than 256 µg/mL and the MIC [3] was greater than 256 µg/mL. For the same compound, the MIC [4] was greater than 256 µg/mL.
